hygroscopicity, gel formation and solubility data for 2 compounds are collected here from US9249112B2, “Solid forms of a transthyretin dissociation inhibitor” (PFIZER INC., priority 2011, dated 2016).

What all share (format): physicochemical
Data set [1] is described as follows: hygroscopicity of the solid form. The note with it: crystalline form, anhydrous mono-meglumine salt.
Data set [2] in a line: gel formation on contact with aqueous vehicles. As to conditions: compound alone, on contact with aqueous vehicles such as water, phosphate buffer and hydrochloric acid. An excerpt: Without wishing to be bound by theory, it appears that such gel formation, upon oral administration, can hinder dissolution and/or bioavailability of such compounds, leading to, for example, stomach compaction and non-proportional plasma levels of drug in the subject as compared to the dose administered. […] Consequently, the pharmaceutical compositions herein are also contemplated for use in or further combination with any conventional formulation or route or method of administration where contact with water or other aqueous vehicles may occur, e.g., contact with blood or other body fluids as in various forms of parenteral administration (e.g., contact with blood in intravenous administration, implants, and the like), contact with mucous membranes (e.g., suppositories via vaginal or rectal administration, dry powder aerosols for pulmonary administration, transdermal patches or lozenges applied to mucous membranes, and the like). In such routes of administration, the benefits of the certain pharmaceutical compositions, such as resistance to gel formation, greater dissolution and bioavailability, dose proportionality, stability to storage, or the like may be beneficial.

Data set [3] is described as follows: solubility in unbuffered water. As to conditions: free acid.

In the case of “6-carboxy-2-(3,5-dichlorophenyl)-benzoxazole meglumine [Compound 1]”, the hygroscopicity result in data set [1] was “non-hygroscopic”.
What is called solubility is the concentration that dissolves in the medium under given conditions. Higher therefore signals much dissolved substance. Regarding `O=C(O)c1ccc2nc(-c3cc(Cl)cc(Cl)c3)oc2c1` [free acid, 6-carboxy-2-(3,5-dichlorophenyl)-benzoxazole], in data set [2], the gel formation result is given as “can form a gel”. The solubility in data set [3] is less than 11 µg/mL.
